Values joined by “and” are separate entries in the source; they are usually repeats but may differ in a detail not shown here. Equal entries are not always repeated. Inconclusive results and toxic doses are left out. The calls were made as follows: active = survival T/C of 150% or more; inactive = T/C below 125% in these data.
Test system: CD2F1 mice, L1210 leukemia ip, survival T/C
Assay: NCI In Vivo Anticancer Drug Screen. Data for tumor model L1210 Leukemia (intraperitoneal) in CD2F1 (CDF1) mice
Conditions: higher = longer survival
Procedure, shortened: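 Transplantable tumor in mice; compound-treated vs vehicle-treated groups. Read-out = treated/control ratio of the measured endpoint.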

Measured: T/C

CN(C)[C@@H]1C(=O)C(C(=O)NCN2CCN(C(=N)N=C(N)N)CC2)=C(O)[C@@]2(O)C(=O)C3=C(O)c4c(O)cccc4[C@@](C)(O)[C@H]3C[C@@H]12
inactive: endpoint: mean survival time, dose: 1.25 mg/kg/injection, schedule: Q01DX001 (ip), vehicle: saline 111 % of control | endpoint: median survival time, dose: 0.31 mg/kg/injection, schedule: Q01DX009 (ip), vehicle: saline 107 % of control | endpoint: median survival time, dose: 0.62 mg/kg/injection, schedule: Q01DX009 (ip), vehicle: saline 110 % of control | endpoint: median survival time, dose: 1.25 mg/kg/injection, schedule: Q01DX009 (ip), vehicle: saline 103 % of control | endpoint: median survival time, dose: 2.0 mg/kg/injection, schedule: Q01DX009 (ip), vehicle: saline 109 % of control | endpoint: median survival time, dose: 5.0 mg/kg/injection, schedule: Q01DX009 (ip), vehicle: saline 87 % of control

CSCC1CCCCC12OCCO2 (configuration not stated)
inactive: endpoint: mean survival time, dose: 100.0 mg/kg/injection, schedule: Q01DX001 (ip), vehicle: saline with Tween-80 104 % of control | endpoint: mean survival time, dose: 200.0 mg/kg/injection, schedule: Q01DX001 (ip), vehicle: saline with Tween-80 96 % of control | endpoint: mean survival time, dose: 400.0 mg/kg/injection, schedule: Q01DX001 (ip), vehicle: saline with Tween-80 96 % of control

Nc1ccc(OCc2nc(N)nc(N)c2-c2cccc(Cl)c2)cc1
inactive: endpoint: mean survival time, dose: 100.0 mg/kg/injection, schedule: Q01DX001 (ip), vehicle: saline + alcohol 103 % of control | endpoint: mean survival time, dose: 200.0 mg/kg/injection, schedule: Q01DX001 (ip), vehicle: saline + alcohol 101 % of control | endpoint: mean survival time, dose: 400.0 mg/kg/injection, schedule: Q01DX001 (ip), vehicle: saline + alcohol 106 % of control

Clc1nnc(-c2ccccc2)c(-c2ccccc2)n1
inactive: endpoint: mean survival time, dose: 100.0 mg/kg/injection, schedule: Q04DX003 (ip), vehicle: saline 91 % of control

COC(=O)c1csc(NC2OC(CO)C(O)C2O)n1 (configuration not stated)
inactive: endpoint: median survival time, dose: 45.9 mg/kg/injection, schedule: Q01DX005 (ip), vehicle: saline 100 % of control | endpoint: median survival time, dose: 91.8 mg/kg/injection, schedule: Q01DX005 (ip), vehicle: saline 100 % of control | endpoint: median survival time, dose: 183.6 mg/kg/injection, schedule: Q01DX005 (ip), vehicle: saline 97 % of control

NC(=O)c1[nH]nc(C2OC(COP(=O)(O)O)C(O)C2O)c1O (configuration not stated)
inactive: endpoint: median survival time, dose: 6.25 mg/kg/injection, schedule: Q01DX005 (ip), vehicle: saline 122 % of control | endpoint: median survival time, dose: 12.5 mg/kg/injection, schedule: Q01DX005 (ip), vehicle: saline 93 % of control | endpoint: median survival time, dose: 25.0 mg/kg/injection, schedule: Q01DX005 (ip), vehicle: saline 93 % of control

O=C(/C=C\c1ccccc1)/C=C/c1ccccc1
inactive: endpoint: mean survival time, dose: 177.0 mg/kg/injection, schedule: Q01DX001 (ip), vehicle: other 96 % of control | endpoint: mean survival time, dose: 267.0 mg/kg/injection, schedule: Q01DX001 (ip), vehicle: other 92 % of control | endpoint: mean survival time, dose: 400.0 mg/kg/injection, schedule: Q01DX001 (ip), vehicle: other 104 % of control | endpoint: mean survival time, dose: 600.0 mg/kg/injection, schedule: Q01DX001 (ip), vehicle: other 107 % of control

CC(C)(C)CC(C)(C)c1ccc(OCCOc2ccccc2NC(=O)c2ccc3ccccc3c2O)cc1
inactive: endpoint: mean survival time, dose: 100.0 mg/kg/injection, schedule: Q01DX009 (ip), vehicle: saline with Tween-80 94 % of control | endpoint: mean survival time, dose: 200.0 mg/kg/injection, schedule: Q01DX009 (ip), vehicle: saline with Tween-80 93 % of control | endpoint: mean survival time, dose: 400.0 mg/kg/injection, schedule: Q01DX009 (ip), vehicle: saline with Tween-80 94 % of control

O=NN(CCCl)C(=O)/N=N/C(=O)N(CCCl)N=O
inactive: endpoint: median survival time, dose: 3.12 mg/kg/injection, schedule: Q01DX001 (ip), vehicle: water 100 % of control | endpoint: median survival time, dose: 6.25 mg/kg/injection, schedule: Q01DX001 (ip), vehicle: water 98 % of control | endpoint: median survival time, dose: 12.5 mg/kg/injection, schedule: Q01DX001 (ip), vehicle: water 113 % of control | endpoint: median survival time, dose: 25.0 mg/kg/injection, schedule: Q01DX001 (ip), vehicle: water 103 % of control and 105 % of control | endpoint: median survival time, dose: 50.0 mg/kg/injection, schedule: Q01DX001 (ip), vehicle: water 98 % of control and 112 % of control | endpoint: median survival time, dose: 100.0 mg/kg/injection, schedule: Q01DX001 (ip), vehicle: water 115 % of control (2×) and 122 % of control
